Data as given in ChEMBL document CHEMBL3885861, “Open TG-GATES”.

Species on record: Rattus norvegicus
Assay: Open TG-GATES - Regimen: Daily Repeat
Type: toxicity, organism-based, Sprague-Dawley
Design: regimen Daily Repeat, gender Male, age 6 weeks
Settings: in vivo, po, 250 mg/kg, route gavage, dose level High; for APTT / Bas / Eos / Fbg / Hb / Ht / Lym / MCH / MCHC / MCV / Mono / Neu / PT / Plat / RBC / Ret / WBC: tissue Blood; for KIDNEY_L / KIDNEY_R / KIDNEY_TOTAL: tissue Kidney; for LIVER: tissue Liver; for ALP / ALT / AST / BUN / CRE / DBIL / GLC / K / Na / PL / RALB / TBIL / TC / TG / TP / gamma-GTP: tissue Plasma

## CN1C(=O)CN=C(c2ccccc2)c2cc(Cl)ccc21 [DIAZEPAM]
72 h, time 3 day
  TERMINAL_BW: 237.9 g
  APTT: 16.2 s
  Bas: 0%
  Eos: 1%
  Fbg: 230.6 mg/dL
  Hb: 14 g/dL
  Ht: 42%
  Lym: 78.8%
  MCH: 21.5 pg
  MCHC: 33.3%
  MCV: 64.8 fL
  Mono: 6.2%
  Neu: 14.2%
  PT: 11.6 s
  Plat: 103.3 x10_4/uL
  RBC: 648.4 x10_4/ul
  Ret: 5.6%
  WBC: 126.1 x10_2/uL
  KIDNEY_L: 1.1 g
  KIDNEY_R: 1.1 g
  KIDNEY_TOTAL: 2.1 g
  LIVER: 12.6 g
  ALP: 891.8 IU/L
  ALT: 47.4 IU/L
  AST: 68.8 IU/L
  BUN: 17.2 mg/dL
  CRE: 0.6 mg/dL
  DBIL: 0.024 mg/dL
  GLC: 201.4 mg/dL
  K: 4.8 meq/L
  Na: 138.9 meq/L
  PL: 173.6 mg/dL
  RALB: 3.8 g/dL
  TBIL: 0.3 mg/dL
  TC: 113.4 mg/dL
  TG: 59.8 mg/dL
  TP: 5.9 g/dL
  gamma-GTP: 1.8 IU/L
[…], time 7 day
  TERMINAL_BW: 268.4 g
  APTT: 17.2 s
  Bas: 0%
  Eos: 1.2%
  Fbg: 211.8 mg/dL
  Hb: 13.7 g/dL
  Ht: 40.8%
  Lym: 76.6%
  MCH: 21.6 pg
  MCHC: 33.5%
  MCV: 64.6 fL
  Mono: 6%
  Neu: 16.6%
  PT: 11.6 s
  Plat: 128 x10_4/uL
  RBC: 633.8 x10_4/ul
  Ret: 5.9%
  WBC: 144 x10_2/uL
  KIDNEY_L: 1.2 g
  KIDNEY_R: 1.2 g
  KIDNEY_TOTAL: 2.4 g
  LIVER: 14.5 g
  ALP: 732.8 IU/L
  ALT: 35.4 IU/L
  AST: 64.8 IU/L
  BUN: 17.2 mg/dL
  CRE: 0.6 mg/dL
  DBIL: 0.008 mg/dL
  GLC: 194.4 mg/dL
  K: 4.5 meq/L
  Na: 139.1 meq/L
  PL: 133.4 mg/dL
  RALB: 3.9 g/dL
  TBIL: 0.3 mg/dL
  TC: 78 mg/dL
  TG: 35.4 mg/dL
  TP: 6.1 g/dL
  gamma-GTP: 1 IU/L
[…], time 14 day
  TERMINAL_BW: 309.4 g
  APTT: 18.5 s
  Bas: 0%
  Eos: 0.8%
  Fbg: 245.8 mg/dL
  Hb: 14.6 g/dL
  Ht: 43.8%
  Lym: 79%
  MCH: 20.6 pg
  MCHC: 33.4%
  MCV: 61.8 fL
  Mono: 4.6%
  Neu: 15.6%
  PT: 11.9 s
  Plat: 106.7 x10_4/uL
  RBC: 709.4 x10_4/ul
  Ret: 4.3%
  WBC: 144 x10_2/uL
  KIDNEY_L: 1.3 g
  KIDNEY_R: 1.4 g
  KIDNEY_TOTAL: 2.7 g
  LIVER: 16.6 g
  ALP: 735.2 IU/L
  ALT: 37.8 IU/L
  AST: 54.2 IU/L
  BUN: 17.6 mg/dL
  CRE: 0.6 mg/dL
  DBIL: 0.01 mg/dL
  GLC: 193.6 mg/dL
  K: 4.6 meq/L
  Na: 142 meq/L
  PL: 145.4 mg/dL
  RALB: 4.1 g/dL
  TBIL: 0.2 mg/dL
  TC: 78.8 mg/dL
  TG: 48 mg/dL
  TP: 6.4 g/dL
  gamma-GTP: 1.6 IU/L
[…], time 28 day
  TERMINAL_BW: 402.6 g
  APTT: 20.2 s
  Bas: 0%
  Eos: 1%
  Fbg: 252 mg/dL
  Hb: 15.4 g/dL
  Ht: 45.8%
  Lym: 81.4%
  MCH: 19.7 pg
  MCHC: 33.6%
  MCV: 58.5 fL
  Mono: 4.2%
  Neu: 13.4%
  PT: 12.2 s
  Plat: 109.3 x10_4/uL
  RBC: 782.2 x10_4/ul
  Ret: 3%
  WBC: 179.4 x10_2/uL
  KIDNEY_L: 1.6 g
  KIDNEY_R: 1.6 g
  KIDNEY_TOTAL: 3.2 g
  LIVER: 19.7 g
  ALP: 448.2 IU/L
  ALT: 35 IU/L
  AST: 53.6 IU/L
  BUN: 19 mg/dL
  CRE: 0.6 mg/dL
  DBIL: 0.012 mg/dL
  GLC: 195.4 mg/dL
  K: 4.1 meq/L
  Na: 140.5 meq/L
  PL: 135.4 mg/dL
  RALB: 4.3 g/dL
  TBIL: 0.3 mg/dL
  TC: 73.4 mg/dL
  TG: 48 mg/dL
  TP: 6.8 g/dL
  gamma-GTP: 0.8 IU/L
